Laboratory results as given in a melting point compilation (Tetko et al.; mined from patent text by program, amines drawn as free bases though some values may be those of a salt).

| SMILES | melting point [°C] |
| --- | --- |
| O=C(Nc1nc(/C=C/c2ccc([N+](=O)[O-])cc2)cs1)c1ccccc1 | 224 to 225 |
| Clc1ccc(-c2cn3ccccc3n2)c(Cl)c1 | 174 to 177 |
| Cc1cc(C(=O)N2CCCC2)ccc1Br | 55 to 57 |
| O=C(N[C@H]1CCN(C(=O)c2cc(C(F)(F)F)cc(C(F)(F)F)c2)[C@H](Cc2ccc(Cl)cc2)C1)c1cc(=O)c2cc(F)ccc2o1 | 215 to 218 |
| CCn1c2cc(C=O)ccc2c2ccc3ccccc3c21 | 138 to 139 |
| C#CCOc1ccc(/C=C/C(=O)Nc2ccccc2C(=O)O)cc1OC | 191 to 193 |
| CC(C)=NOCc1nc2c(N)nc3ccccc3c2s1 | 152 to 153 |
| COCCOCOc1ccc(C(=O)c2nc3ccc(OCOCCOC)cc3s2)cc1 | 46 |
| Cc1c(C)c2c(c(C)c1OCc1ccccc1)CC[C@@](C)(CO)O2 | 66 to 69.5 |
| CC(c1oc2ccccc2c(=O)c1-c1cccc(F)c1)n1nc(-c2csc(C=O)c2)c2c(N)ncnc21 (stereo unspecified) | 192 to 195 |
| Cc1cccc(-c2nc3ccc(Cl)nn3c2-c2ccnc(N)n2)c1 | 237 to 238 |
| O=C1CCCc2cc(O)cc(O)c21 | 209 to 210 |
| O=C(N[C@@H](Cc1ccccc1)C(=O)NC(O)C(=O)O)OCc1ccccc1 (stereo partly specified) | 117 to 127 |
| c1ccc2c(c1)ccc1nn[nH]c12 | 245 to 247 |
| CS(=O)(=O)Nc1cccc(Nc2nc(NCc3cccc(N)c3)c3nc[nH]c3n2)c1 | 170 to 173 |
| COc1ccccc1C1C2CCC(C2)C12CCC(=O)N2 (stereo unspecified) | 260 |
| COC(=O)CNC(=O)c1cc2c(C(=O)CN(Cc3ccccc3)C(C)(C)C)ccc(OCc3ccccc3)c2[nH]1 | 152 |
| Cc1cc(C)c(Nc2nc(Nc3ccc(C#N)cc3)ncc2-c2ccccc2)c(C)c1 | 209 to 214 |
| COCCO[C@@H]1c2ccc3[nH]c(C)nc3c2O[C@H](c2ccccc2)[C@H]1O | 117 |
| CC1=Nc2c(C)nn(C)c2C2=NCCN12 | 174 to 177 |
| COc1ccc(S)c(C(=O)O)c1 | 173 to 178 |
| O=C(NCC12CC3CC(CC(C3)C1)C2)c1cc(-c2cc(F)cnc2N2CCC(C(=O)O)CC2)ccc1Cl | 130 to 135 |
| O=CN(O)C1(CS(=O)(=O)c2ccc(Oc3ccc(OC(F)(F)F)cc3)cc2)CCC2(CC1)OCCO2 | 133 to 134 |
| COc1cc(CCCCC2OC(=O)NC2=O)ccc1OCc1coc(/C=C/c2ccccc2)n1 (stereo unspecified) | 171 to 172 |

| SMILES | melting point [°C] |
| --- | --- |
| CCCC12C=CC=C(N3CCC(c4noc5cc(F)ccc45)CC3)C1(O)C(=O)NC2=O (stereo unspecified) | 162 to 163 |
| CC(C)OC1OC(=O)CC(C)(C)C1O (stereo unspecified) | 50 |
| COc1ccccc1Nc1cc(-c2c(-c3cccc(C)c3)nc3cccnn23)ccn1 | 157 to 158 |
| CCOCc1nc2c(N)nc3ccccc3c2n1CCCc1cc(C)no1 | 163 to 164 |
| CCC(=CC(CNC(=O)c1ccc(NS(C)(=O)=O)nc1)=NO)C(C)[N+](=O)[O-] (stereo unspecified) | 131 to 136 |
| CCCCCCCN(CCCCCSc1nc(-c2ccc(OC)cc2)c(-c2ccc(OC)cc2)[nH]1)c1nc2ccccc2[nH]1 | 78 to 80 |
| CSc1cc(Oc2cccc(C(F)(F)F)c2)nc(C(=O)Nc2ccccc2)c1 | 115 to 119 |
| Cc1ccc([N+](=O)[O-])c(-c2nc(C(F)(F)F)cs2)c1 | 98 to 104 |
| O=c1[nH]c2c(c3nc(-c4ccccn4)nn13)CN(Cc1ccccc1)CC2 | 290 |
| CSc1[nH]c(-c2cnn(-c3c(Cl)cc(C(F)(F)F)cc3Cl)n2)nc1[N+](=O)[O-] | 153 to 155 |
| CC(C)n1nc(-c2c(-c3ccccc3)nn3ccc(NC(=O)c4ccccc4)cc23)ccc1=O | 266 to 267 |
| O=C(O)C(Cl)(Cl)CCCCCCCCCCCCCCBr | 61 to 63 |
| CC1(C)OC(=S)Nc2ccc(-c3cccc(CC#N)n3)cc21 | 215 to 217 |
| Cc1cc2nc(C(=O)O)c(=O)[nH]c2cc1C | 276 to 285 |
| COc1cc(OC)nc(Nc2cc(C)ccc2N)n1 | 128 to 129 |
| CC(C)(C)C(NC(=O)c1ccc(Cl)cc1)NC(=NS(=O)(=O)c1ccccc1)Nc1cccnc1 (stereo unspecified) | 196 to 197 |
| CN(C)C=NS(=O)(=O)c1cc(CCNC(=O)C(F)(F)F)ccc1OCCOC(F)(F)F | 111 to 114 |
| CCOC(=O)C1CCC(c2ccc(OCC(=O)O)c(Cl)c2Cl)=CC1=O (stereo unspecified) | 193 to 195 |
| COc1cccc2c1C(CN1CC=C(c3c[nH]c4cc(Cl)ccc34)CC1)CC2 (stereo unspecified) | 177 to 178 |
| CN(C)C1=C(c2cccc(C(F)(F)F)c2)C(=O)OC1 | 110 |
| CCc1ccc(Oc2cnc(S)[nH]c2=O)cc1 | > 220 |
| CCC(O)(CC)CC1NC(=O)c2ccccc21 (stereo unspecified) | 130 to 132 |
| O=C1NCc2ccc(-c3cccc4cc(Cc5cccc(C(F)(F)F)c5)sc34)cc21 | 151 to 152 |
| CCc1cccc(-c2ccc(S(=O)(=O)N3c4ccccc4CC3C(=O)O)cc2)c1 (stereo unspecified) | 70 to 72 |

| SMILES | melting point [°C] |
| --- | --- |
| CCCCn1c(=O)c2c(nc(C)n2S(=O)(=O)c2ccc(C)cc2)n(CCCC)c1=O | 111 to 113 |
| O=S(=O)(Cl)c1cccc2c1COC2 | 40 to 43 |
| O=C(O)CNc1ccc(Cl)c(Cl)c1 | 128 to 130 |
| CC(C)NC(=O)Nc1nc2nc(N)ncc2cc1-c1c(Cl)cccc1Cl | 184 to 188 |
| Cc1nc(C)c(-c2ccnc(Nc3ccc(N4CCOCC4)c(C)c3)n2)s1 | 164 to 166 |
| CC(=O)c1ccc(-n2c(-c3sc(NC(=O)c4ccccc4)nc3-c3ccccc3)nc3ccccc3c2=O)cc1 | 250 to 252 |
| COc1ccc(NC(=O)c2ccc(-c3ccc(C(=O)N4CCC4)cc3C)cc2)cc1N1CCN(C)CC1 | 167 to 170 |
| Cc1cc(O)cc2c1N(C)C1N(C)CCC21C (stereo unspecified) | 146 to 148 |
| CSc1cccc2c1Sc1ccc(O)cc1N2 | 188 to 190 |
| COc1cc2cc(C=O)c(Cl)nc2cc1F | 180 |
| Nc1cc(Oc2cc(Cl)cc(Cl)c2)nc(C(=O)O)c1Cl | 196 |
| O=C1c2ccc(C#Cc3ccccc3)cc2C(=O)N1c1ccc2c(c1)C=C2 | 194 to 195 |
| Cc1ccc2c([nH]c3c(C(=O)N4CCOCC4)cccc32)c1C | 183 |
| O=C(O)CCCCCCCn1cc(-c2ccccc2)c(-c2ccccc2)n1 | 108 to 110 |
| Cc1ccc([N+](=O)[O-])c(C=C2C(=O)NC(=O)N2C)c1 | 261 to 262 |
| COc1cccc2c1C(O)CC21CCN(CCCC(=O)c2ccc(F)cc2)C1 (stereo unspecified) | 152 to 154 |
| CCOC(=O)N1CCC(N(Cc2ccccc2)C(=S)Nc2ccccc2[N+](=O)[O-])CC1 | 140 |
| O=S(=O)(c1ccc(Br)cc1)N1CCCC1c1ccc(F)cc1 (racemic) | 131 |
| Cc1cccc2c1NS(=O)(=O)N(C(C)C)C2=O | 124 |
| FC(F)(F)c1ccc(C=Cc2nc(CCl)cs2)cc1 | 93 to 95 |
| Cc1c(-c2ccc(N(C)C)nn2)ssc1=S | 216 |
| c1ccc2cc(Cn3ccnc3)ccc2c1 | 87 to 88 |
| COc1ccc(CSc2ccc([N+](=O)[O-])cc2C(=O)O)cc1 | 200 to 204 |
